These results are taken from paper PMC9964140, “Exploration of Succinimide Derivative as a Multi-Target, Anti-Diabetic Agent: In Vitro and In Vivo Approaches” (Molecules, 2023).

Data set [1] can be described thus: Antioxidant (DPPH) test. The note with it: DPPH free radical scavenging. The protocol: For identifying free radicals and the scavenging potential of new organic compounds, Sigma Aldrich USA’s DPPH was employed. Methanol was employed as a solvent for preparing test samples of varying strengths of the examined substances. Two milliliters of the test sample’s variation strength were blended separately with two milliliters of the DPPH solution and 0.002% methanol. After being stored in the dark and at room temperature for 30 min, test tubes were examined using a UV spectrophotometer to measure the absorbance at 517 nm. As is customary, ascorbic acid was employed here, and the procedure was then repeated three times. Utilizing the formula below, the tested specimen’s scavenging activity was calculated: Scavenging activity % = (A − B)/A × 100. The letters “A” and “B” stand for the absorbance of the DPPH and the test sample, respectively. By plotting a graph of the scavenging effect of the tested compounds versus the concentration of the corresponding solution, IC50 values were determined.

Data set [2] has as its target DPP-4 (Homo sapiens, UniProt P27487). Put plainly: Dipeptidyl peptidase-4 (DPP-4) fluorescence probe test. The class given is biochemical. The settings on record: ± SEM; read-out: IC50 DPP4. The method, then:
Our compound’s inhibitory impact on the DPP-4 target was identified by a fluorescence probe in vitro assay. […] In a 96-well microplate reader, the test results were recorded. At first, various concentrations of the chemical were used to determine its action. Then, in accordance with the normal approach, a dose-dependent response was identified in order to estimate the IC50 value.

Data set [3] has as its system STZ-induced diabetic mice. The data set can be described thus: Body weight, insulin, lipid profile, serum markers and histopathology in STZ-induced diabetic mice. In kind it is in vivo. The settings on record: for histopathology of liver, kidney and pancreas: H & E staining; for effect on body weight of diabetic mice: treated; for insulin levels: treated STZ-induced diabetic mice, untreated diabetic group 2.5 ± 0.15, normal control 13.5 ± 0.95. The method, then: (§1) The mice were placed into 4 groups, with 5 animals in each group having elevated blood glucose levels. Group I was the normal group, which had normal blood glucose levels and was given saline. Group II was treated with a Tween 80 solution; in this group, diabetic mice were kept. Glibenclamide was administered at a 500 μM/Kg dose to group III, which was the control group with diabetic mice. Group IV, the final group, received treatment with different concentrations of the produced substance. The mice were killed after three weeks (21 days) by cervical decapitation, and blood samples and organs were taken for H & E staining-based histological analysis and for bioassays.

Data set [4] concerns the target T1, PTP1 B (Homo sapiens, UniProt P18031).
T1 sequence (P18031 1-435): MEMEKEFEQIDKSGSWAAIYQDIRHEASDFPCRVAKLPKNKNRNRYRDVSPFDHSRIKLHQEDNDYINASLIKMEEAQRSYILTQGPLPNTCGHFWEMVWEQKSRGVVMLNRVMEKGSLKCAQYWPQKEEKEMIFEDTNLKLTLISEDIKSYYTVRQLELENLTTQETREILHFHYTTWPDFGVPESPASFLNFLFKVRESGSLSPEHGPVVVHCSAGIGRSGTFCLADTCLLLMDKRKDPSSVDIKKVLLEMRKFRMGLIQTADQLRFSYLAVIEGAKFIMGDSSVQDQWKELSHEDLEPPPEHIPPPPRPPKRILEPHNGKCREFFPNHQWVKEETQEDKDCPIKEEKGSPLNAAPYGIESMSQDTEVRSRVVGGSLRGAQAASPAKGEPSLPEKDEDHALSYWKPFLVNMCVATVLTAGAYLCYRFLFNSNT
The data set can be described thus: Protein tyrosine phosphatase 1 B (PTP1 B) test. The class given is biochemical. The settings on record: ± SEM; pH 7, 40 min at 27 °C.
Method: It is performed with a buffer solution of 3,3-dimethyl glutarate at a pH of 7. Additionally, a PTP1 B 10 mM solution, p-NO2-phenol phosphate of 1 mM, and numerous additional concentrations of the substance were made. As a result, the mixtures were incubated for 40 min at 27 °C. Then, measurements of the absorbances were conducted at 405 nm after the designated 40 min.

The test system of data set [5] is mice. The note with it: mouse, in vivo. The protocol:
Prior to putting the drug through tests on lab animals, its acute toxicity was determined. Two groups of experimental mice, (1) the control group and (2) the test group, were used for this experiment. Each group consisted of five mice. It was conducted intraperitoneally with different concentrations of the chemical. The mice were then closely examined for three days in the animal home after the chemical was administered to check for death or any unfavorable reactions.

The test system of data set [6] is diabetic mice. Put plainly: In vivo anti-diabetic assay (blood glucose, 21 days). Set-up: species or system albino mice.
From the text: For in vivo anti-diabetic efficacy, albino mice having weight of 30 g were employed. The animals utilized in experiments were compliant with the 2008 Animal Bye-Laws of the Pharmacy Department at the University of Malakand in Pakistan (Scientific Procedure Issue-I). The animals were handled according to accepted practices and housed in an animal facility during the experimental procedures. The animals were put to death following the experiment in accordance with AVMA rules.
The mice were given 10% alloxan monohydrate at a dose of 150 mg/kg body weight through IP in order to induce diabetes. The control group received a normal saline IP during this trial. Following the administration of alloxan, the animals’ blood glucose levels were checked using a glucometer. According to the protocols, in the in vivo study, mice with elevated blood sugar concentrations were also utilized.
as §1

Data set [7] concerns the target α-Glucosidase. The data set can be described thus: Alpha-glucosidase test. The settings on record: ± SEM. The class given is biochemical. The protocol:
A concentration of 0.5 mg/11 mL distilled water and a substrate solution of glucopyranoside at 15 mg/10 mL distilled water concentration were added to […] of a phosphate buffer and kept at 37 °C for 20 min, respectively, to prepare the sample. To prepare the control, 1200 μL of the phosphate buffer was added to the test tube. Next, 400 μL of the substrate solution (glucopyranoside 15 mg/10 mL distilled water) and 800 µL of an enzyme solution were mixed. At last, the temperature was kept at 37 °C for 20 min.

The target in data set [8] is α-Amylase. Put plainly: Alpha-amylase test. The class given is biochemical. The settings on record: ± SEM.
Method: In order to evaluate the alpha-amylase test, standardized reporting protocols were followed [35]. In order to combine the enzyme and the phosphate buffer, test samples of varying strengths were added to the enzymatic solution. Incubation of the sample was followed by admixing of starch to both the control and test solutions and a dinitro salicylic acid solution. The sample combination was then maintained in a boiling water bath for a short period of time, and a microplate reader was used to measure the absorbance at 656 nm.
The formula below was used to calculate the α-amylase enzyme’s percentage inhibition capability: Percent Inhibition=Absorbance of Control − Absorbance of Sample ×100/Absorbance of Control
[9] abbreviates: diabetic mice, compared to diabetic mice not given the medication.

Sequence of DPP-4 (P27487 whole entry, species assumed): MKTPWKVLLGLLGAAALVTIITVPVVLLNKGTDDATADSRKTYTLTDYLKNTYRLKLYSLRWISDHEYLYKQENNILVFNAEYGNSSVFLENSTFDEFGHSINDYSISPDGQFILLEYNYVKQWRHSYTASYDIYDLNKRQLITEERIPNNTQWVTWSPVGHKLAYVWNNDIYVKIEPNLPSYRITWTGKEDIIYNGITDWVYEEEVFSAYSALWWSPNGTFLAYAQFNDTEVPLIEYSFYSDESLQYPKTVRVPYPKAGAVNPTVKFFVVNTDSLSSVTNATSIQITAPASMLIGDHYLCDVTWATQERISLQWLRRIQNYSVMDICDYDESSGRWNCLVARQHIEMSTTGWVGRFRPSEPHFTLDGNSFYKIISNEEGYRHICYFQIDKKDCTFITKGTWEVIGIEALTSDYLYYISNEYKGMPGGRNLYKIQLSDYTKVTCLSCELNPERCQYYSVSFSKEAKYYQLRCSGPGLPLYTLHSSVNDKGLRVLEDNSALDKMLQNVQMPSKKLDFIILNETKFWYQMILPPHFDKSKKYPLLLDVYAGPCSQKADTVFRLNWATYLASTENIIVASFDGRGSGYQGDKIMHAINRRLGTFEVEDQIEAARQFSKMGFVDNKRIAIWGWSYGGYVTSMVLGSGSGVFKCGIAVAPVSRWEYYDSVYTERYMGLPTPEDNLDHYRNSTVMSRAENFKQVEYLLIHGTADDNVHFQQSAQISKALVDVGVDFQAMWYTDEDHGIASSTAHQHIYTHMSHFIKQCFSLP

`O=C1O[C@H]([C@@H](O)CO)C(O)=C1O` [Ascorbic acid, reference compound]: the IC50 in data set [1] was 1.44 ± 0.2 µM.

Take `COc1cc(CC(C)=O)ccc1OC1CC(=O)N(Cc2ccccc2)C1=O` (stereo not shown) [Compound 3, 1-benzyl-3-(2-methoxy-4-(2-oxopropyl)phenoxy)pyrrolidine-2,5-dione]: the IC50 in data set [2] worked out at 0.07 ± 0.03 µM. In data set [1], this compound returned an IC50 of 3.31 ± 0.65 µM. In data set [3] (STZ + compound 3 group (Tg-5), final vs initial day, diabetic group lost 1.9 ± 0.05 g), the body weight gain stood at 1.55 g. Moreover, in data set [3] (STZ-induced diabetic mice), the BUN entry is recorded as “decreased the excess peak”, the HDL levels entry was “raising HDL levels”, the LDL levels result is “dramatically reduced” and the creatinine entry is “decreased the excess peak”. In addition, in data set [3] (STZ-induced diabetic mice), the “serum ALP” value was “suppressed the enhanced rise”; the “serum ALT” value is “suppressed the enhanced rise”; the “serum AST” value is “suppressed the enhanced rise”; the “histopathology of liver, kidney and pancreas” value was “healed from the histological injuries”. In addition, the “effect on body weight of diabetic mice” value in data set [3] (STZ-induced diabetic mice) is listed as “recovered their bodyweight”. Further, in data set [3] (setting [9]), the “reduction of total cholesterol” value amounted to 34.9% and the “reduction of total triglycerides” value worked out at 35.20%. Moreover, the “effect on body weight of non-diabetic mice” value in data set [3] (non-diabetic group) is reported as “did not affect the body weights”. In data set [3], this compound registered an insulin levels of 10.9 ± 0.25 ng/mL. Further, the IC50 in data set [4] came to 13.2 ± 0.11 µM. The “acute toxicity: allergic reaction” value in data set [5] is reported as “no sign of an allergic reaction”. The acute toxicity outcome in data set [5] (ip) is “safe and had no adverse effects”. In addition, in data set [6] (15.625 µM/kg IP), the “Blood Glucose Level 0 Day” value was 22.7 mmole per Liter, the “Blood Glucose Level 7th Day” value is listed as 19.7 mmole per Liter, the “Blood Glucose Level 14th Day” value was found to be 17.6 mmole per Liter and the “Blood Glucose Level 21st Day” value is reported as 15.1 mmole per Liter. Also, in data set [6] (31.25 µM/kg IP), the “Blood Glucose Level 0 Day” value stood at 22.9 mmole per Liter, the “Blood Glucose Level 7th Day” value came out at 19.1 mmole per Liter, the “Blood Glucose Level 14th Day” value was found to be 17.1 mmole per Liter and the “Blood Glucose Level 21st Day” value is given as 13.6 mmole per Liter. Besides, in data set [6] (62.5 µM/kg IP), the “Blood Glucose Level 0 Day” value came to 23.2 mmole per Liter, the “Blood Glucose Level 7th Day” value turned out to be 19.3 mmole per Liter, the “Blood Glucose Level 14th Day” value came to 16.7 mmole per Liter and the “Blood Glucose Level 21st Day” value was determined as 13.1 mmole per Liter. Moreover, in data set [6] (125 µM/kg IP), the “Blood Glucose Level 0 Day” value was 22.6 mmole per Liter, the “Blood Glucose Level 7th Day” value is reported as 18.9 mmole per Liter, the “Blood Glucose Level 14th Day” value was found to be 16.2 mmole per Liter and the “Blood Glucose Level 21st Day” value is 12.8 mmole per Liter. For the same compound, in data set [6] (250 µM/kg IP), the “Blood Glucose Level 0 Day” value is listed as 22.4 mmole per Liter, the “Blood Glucose Level 7th Day” value is 18.4 mmole per Liter, the “Blood Glucose Level 14th Day” value is 15.7 mmole per Liter and the “Blood Glucose Level 21st Day” value is on record as 12.2 mmole per Liter. In data set [7], the IC50 came out at 7.2 ± 0.92 µM. The compound also had an IC50 in data set [8] of 15.4 ± 0.15 µM.

Regarding `COc1ccc(Cl)cc1C(=O)NCCc1ccc(S(=O)(=O)NC(=O)NC2CCCCC2)cc1` [Glibenclamide, reference compound], in data set [6] (250 µM/kg IP), the “Blood Glucose Level 0 Day” value was 21.5 mmole per Liter, the “Blood Glucose Level 7th Day” value is given as 17.7 mmole per Liter, the “Blood Glucose Level 14th Day” value is 14.5 mmole per Liter and the “Blood Glucose Level 21st Day” value is on record as 11.1 mmole per Liter.

Consider `CN(C)C(=N)N=C(N)N` [Metformin, reference compound], for which, in data set [3] (STZ-induced diabetic mice), the “serum ALP” value is “suppressed the enhanced rise”; the “serum ALT” value was “suppressed the enhanced rise”; the “serum AST” value was “suppressed the enhanced rise”; the “histopathology of liver, kidney and pancreas” value is listed as “healed from the histological injuries”. Besides, in data set [3] (STZ-induced diabetic mice), the “effect on body weight of diabetic mice” value is “recovered their bodyweight”. Further, the insulin levels in data set [3] amounted to 12.2 ± 0.29 ng/mL.
